Molecular target: T1, β-casein (β-CN) (Bos taurus, UniProt P02666)
T1 construct: gene CSN2
T1 sequence (P02666 16-224): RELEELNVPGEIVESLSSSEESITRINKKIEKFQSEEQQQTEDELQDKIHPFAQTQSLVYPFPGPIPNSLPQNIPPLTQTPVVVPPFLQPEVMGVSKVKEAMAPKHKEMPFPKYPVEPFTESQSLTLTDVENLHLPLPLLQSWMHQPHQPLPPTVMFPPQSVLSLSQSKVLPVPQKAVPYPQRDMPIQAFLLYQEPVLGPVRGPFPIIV
Assay: Trp143 fluorescence quenching, modified Stern-Volmer fit (combined static and dynamic)
Assay type: binding
Details: PBS pH 7.0, 0.1 M ionic strength, 2.5% DMSO, 23 °C, 1 mg/ml protein (micelles); KSV called association constant but also defined as Stern-Volmer overall quenching constant; ligand poorly soluble
Description: Trp143 fluorescence quenching, modified Stern-Volmer fit (combined static and dynamic) on β-casein (β-CN)

With `COc1cc2c(cc1OC)CN(CCc1ccc(NC(=O)c3cc(OC)c(OC)cc3NC(=O)c3cnc4ccccc4c3)cc1)CC2` [Tariquidar] the “KSV ± SE (10^4 M^-1)” value was 1.80 ± 0.16 10^4 M^-1.

`CC(=O)O[C@H]1C(=O)[C@@]2(C)[C@H]([C@H](OC(=O)c3ccccc3)[C@]3(O)C[C@H](OC(=O)[C@H](O)[C@@H](NC(=O)c4ccccc4)c4ccccc4)C(C)=C1C3(C)C)[C@]1(OC(C)=O)CO[C@@H]1C[C@@H]2O` [Paclitaxel] was tested, and the “KSV ± SE (10^4 M^-1)” value was 0.96 ± 0.07 10^4 M^-1.
